Results as given in PMC8434109, “Synthesis and Biological Activity of a Cytostatic Inhibitor of MLLr Leukemia Targeting the DOT1L Protein” (Molecules, 2021).

Assays:
[1] = test system: KOPN8 cells (MLL-ENL); test: Cell proliferation, trypan blue counting; format: cell-based; details: Homo sapiens, KOPN-8, 360 h, 15-day treatment, read-out: EC50 of the proliferation inhibition
Protocol: (§1) For assessment of cell proliferation and viability in human cell lines, exponentially growing cells were placed, in triplicate, in 96-well plates at a density of 35,000 cells/well at a final volume of 100 µL. […] The viable cell number was determined every 3–4 days for up to 15 days to 21 days using trypan blue counting using Cellometer Disposable Counting Chambers for the Cellometer Mini Automated Cell Counter.

[2] = test system: NOMO-1 cells (MLL-AF9); test: Cell proliferation, trypan blue counting; format: cell-based; details: Homo sapiens, 360 h; NOMO-1 (AF9), 15-day treatment; read-out: EC50 of the proliferation inhibition
Protocol: as §1

[3] = test system: histone marks H2R2me2S, H3K4me3, H3K9me2, H4K20me2, H4K20me3, H3K9me1, H3K36me1; test: Selectivity on histone marks by fluorescence microscopy HCS; format: cell-based; details: 7 tested histone marks other than H3K79me2
Protocol: This difference in the mechanism was further confirmed by flow cytometry analysis of the impact of the compounds on the cell cycle and apoptosis.
Table S1: Selectivity of the compound on a HMT panel (by Reaction Biology, USA) and on hDNMT3Acat (as described in Ceccaldi
Enzyme % Activity (relative to DMSO
Testing Concentration 10µM
Methyltransferase: Substrate: Activity enzyme in %
EZH2 Complex Core Histone 86±1
Figure S4. Selectivity evaluation of the compound Dia-2 by fluorescence microscopy HCS. A) fluorescence imaging of the
H3K79me2 mark B) bar diagram of the percentage of inhibition for compound Dia-2.
(1 picture or pasted object on this page, not shown here)

[4] = test system: MV4-11 cells (MLL-AF4); test: Cell proliferation and viability, trypan blue counting; format: cell-based, human; details: Homo sapiens, 360 h; MV4-11 (AF4), 15-day treatment; read-out: EC50 of the proliferation inhibition

CC(C)[C@H](CCCNC(=O)Nc1ccc(C(C)(C)C)cc1)N[C@H]1C[C@@H](n2cnc3c(N)ncnc32)[C@H](O)[C@@H]1O [Dia2, 1-((S)-4-(((1S,2R,3S,4R)-4-(6-amino-9H-purin-9-yl)-2,3-dihydroxycyclopentyl)amino)-5-methylhexyl)-3-(4-(tert-butyl)phenyl)urea]
EC50 [1]: 63 ± 2 nM | EC50 [2]: 660 ± 20 nM | effect on other histone marks in cells [3]: does not affect the other 7 tested histone marks | EC50 [4]: 93 ± 4 nM
